Here are results for eleven compounds from ChEMBL document CHEMBL1201862, “PubChem BioAssay data set” (2004).

Test systems include MDA-N; SK-MEL-5; OVCAR-4; OVCAR-8; PC-3; COLO 205; OVCAR-3; SNB-19; Malme-3M; HCC 2998; UACC-62; MDA-MB-435; M14; SF-295; HOP-62; NCI-H522; HOP-92; A498; LOX IMVI; SF-539.
What all share (assay): growth of human tumour cells (NCI), 48 h

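Compound exposure: 48 hours, 5 concentrations, 96-well plates. The concentration for 50% growth inhibition is given as GI50.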 Calls of active or inactive are those of the source. Cut-off read from the data, not from the text of the source: active = GI50 up to about 1.1 µM and inactive = higher. Where only a bound is given, the exact number is not on record here.

Regarding `Cc1nc2c(cc1C(=O)N/N=C/c1ccc([N+](=O)[O-])cc1)c(=O)n(C)c(=O)n2C`, the GI50 in the test with MDA-N was > 100 µM (inactive); with SK-MEL-5, > 100 µM (inactive); with OVCAR-4 it was > 100 µM (inactive); with OVCAR-8 it was 32.4 µM (inactive); in the test with PC-3 it was > 100 µM (inactive); with COLO 205 it was > 100 µM (inactive). The GI50 was > 100 µM (inactive) in the test on OVCAR-3; 21.4 µM (inactive) in the test with SNB-19; > 100 µM (inactive) in the test with Malme-3M; > 100 µM (inactive) with HCC 2998; > 100 µM (inactive) with UACC-62; > 100 µM (inactive) in the test on MDA-MB-435. Besides, the GI50 in the test on M14 was > 100 µM (inactive); with SF-295 it was 54.1 µM (inactive); with HOP-62, 16.5 µM (inactive).

In the case of `CN(N=O)C(=N)NC(=O)c1ccccc1`, the GI50 in the test on NCI-H522 is > 100 µM (inactive); with HOP-92, > 100 µM (inactive); with MDA-N, > 100 µM (inactive); in the test on A498, > 100 µM (inactive); with SK-MEL-5, 45.4 µM (inactive); with OVCAR-4, > 100 µM (inactive). For the same compound, the GI50 in the test on OVCAR-8 was > 100 µM (inactive); with PC-3, > 100 µM (inactive); in the test on COLO 205, > 100 µM (inactive); with LOX IMVI it was 49.2 µM (inactive); with OVCAR-3 it was > 100 µM (inactive); with SNB-19, > 100 µM (inactive). The GI50 is > 100 µM (inactive) in the test on Malme-3M; 56.5 µM (inactive) with UACC-62; > 100 µM (inactive) in the test on MDA-MB-435; 62.1 µM (inactive) with SF-539; > 100 µM (inactive) in the test on M14; > 100 µM (inactive) in the test with SF-295. Besides, the GI50 in the test with HOP-62 is > 100 µM (inactive).

As for `CN1CN(c2ccccc2)C2(CCN(Cc3csc4ccccc34)CC2)C1=O`, the GI50 was 9.23 µM (inactive) with NCI-H522; 15.2 µM (inactive) in the test with MDA-N; 7.78 µM (inactive) in the test with SK-MEL-5; 16.2 µM (inactive) in the test on OVCAR-8; 9.27 µM (inactive) in the test on PC-3; 11.1 µM (inactive) with COLO 205. Further, the GI50 is 11.8 µM (inactive) in the test on LOX IMVI; 8.85 µM (inactive) in the test with OVCAR-3; 38.4 µM (inactive) in the test with SNB-19; 17.2 µM (inactive) in the test with Malme-3M; 13.4 µM (inactive) in the test on HCC 2998; 22.8 µM (inactive) with UACC-62. Also, the GI50 is 14.3 µM (inactive) in the test on MDA-MB-435; 15.1 µM (inactive) with SF-539; 13.7 µM (inactive) in the test with M14; 11.8 µM (inactive) with SF-295; 19.6 µM (inactive) in the test with HOP-62.

On to `CCSC1=CC(=O)c2nc3ccccc3c3ccnc1c23`, for which the GI50 with NCI-H522 was 1.45 µM (inactive); in the test on HOP-92, 11.4 µM (inactive); with MDA-N, 1.95 µM (inactive); with OVCAR-4, 2.69 µM (inactive); in the test on OVCAR-8 it was 2.57 µM (inactive); in the test with PC-3 it was 2.17 µM (inactive). For the same compound, the GI50 with COLO 205 was 8.15 µM (inactive); in the test on LOX IMVI, 4.51 µM (inactive); in the test with OVCAR-3, 2.56 µM (inactive); in the test with SNB-19, 42.2 µM (inactive); in the test with Malme-3M it was 1.67 µM (inactive); with HCC 2998, 8.89 µM (inactive). Further, the GI50 with UACC-62 was 2.05 µM (inactive); in the test on MDA-MB-435 it was 1.77 µM (inactive); in the test with SF-539, 5.43 µM (inactive); with M14, 2.38 µM (inactive); in the test on SF-295 it was 13.8 µM (inactive); in the test on HOP-62, 18.4 µM (inactive).

As to `O=C(/C=C/c1ccc(O)c(-c2cc(C(=O)/C=C/c3ccc(O)cc3)c(O)cc2O)c1)c1ccc(O)cc1O` [RHUSCHALCONE VI], the GI50 in the test on NCI-H522 is 37.4 µM (inactive); in the test with HOP-92 it was 24.6 µM (inactive); in the test with MDA-N it was 18.3 µM (inactive); in the test on A498 it was > 50 µM (inactive); with SK-MEL-5 it was 27.8 µM (inactive); in the test on OVCAR-4, 17.9 µM (inactive). For the same compound, the GI50 in the test on OVCAR-8 is 11.7 µM (inactive); with PC-3, 22.5 µM (inactive); in the test on COLO 205, 10.5 µM (inactive); in the test with LOX IMVI it was 14.5 µM (inactive); in the test with OVCAR-3, 16.2 µM (inactive); in the test on SNB-19 it was 28.6 µM (inactive). The GI50 is 22.1 µM (inactive) in the test on Malme-3M; 9.16 µM (inactive) in the test with UACC-62; 21.4 µM (inactive) in the test with MDA-MB-435; 11.7 µM (inactive) in the test on SF-539; 49.1 µM (inactive) in the test on M14; 37.5 µM (inactive) in the test with SF-295. Moreover, in the test on HOP-62, the GI50 is 30.9 µM (inactive).

Turning to `CCN(CC)CCn1c(=O)c2cccnc2n2c3c(=O)n(C)c(=O)n(C)c3nc12`, the GI50 in the test on NCI-H522 was > 100 µM (inactive); in the test on HOP-92, > 100 µM (inactive); in the test on MDA-N, > 100 µM (inactive); with SK-MEL-5 it was 47.1 µM (inactive); with OVCAR-4, > 100 µM (inactive); in the test on OVCAR-8, > 100 µM (inactive). The GI50 with PC-3 was > 100 µM (inactive); in the test with COLO 205, 70.3 µM (inactive); in the test with OVCAR-3, > 100 µM (inactive); in the test with SNB-19 it was > 100 µM (inactive); in the test with Malme-3M it was 65.2 µM (inactive); with HCC 2998 it was 72.4 µM (inactive). Besides, the GI50 in the test with UACC-62 was 57 µM (inactive); in the test on MDA-MB-435, > 100 µM (inactive); in the test on SF-539, 85.1 µM (inactive); with M14, > 100 µM (inactive); in the test with SF-295, > 100 µM (inactive); with HOP-62, > 100 µM (inactive).

Turning to `O=C(O)c1cccc(F)c1C(=O)c1ccc2ccccc2c1`, the GI50 was 62.2 µM (inactive) in the test on NCI-H522; > 100 µM (inactive) in the test on HOP-92; > 100 µM (inactive) in the test with MDA-N; > 100 µM (inactive) in the test on A498; < 0.01 µM (active) in the test with SK-MEL-5; > 100 µM (inactive) in the test with OVCAR-4. For the same compound, the GI50 with OVCAR-8 is > 100 µM (inactive); in the test with PC-3, > 100 µM (inactive); in the test on COLO 205, 2.99 µM (inactive); in the test with LOX IMVI, > 100 µM (inactive); in the test with OVCAR-3, > 100 µM (inactive); in the test on SNB-19 it was > 100 µM (inactive). Besides, the GI50 in the test on Malme-3M, in the test on UACC-62, in the test on MDA-MB-435, with SF-539, in the test with M14 and in the test with SF-295 was > 100 µM (inactive) each time. Also, in the test with HOP-62, the GI50 is > 100 µM (inactive).

Regarding `COc1ccc(-n2sc3ncc(C)cc3c2=O)cc1`, the GI50 was 20.6 µM (inactive) with NCI-H522; 19.9 µM (inactive) with HOP-92; 16.5 µM (inactive) with MDA-N; 13.2 µM (inactive) in the test with SK-MEL-5; 33.4 µM (inactive) with OVCAR-4; 18.2 µM (inactive) in the test on OVCAR-8. Also, the GI50 with PC-3 is 15.6 µM (inactive); in the test with COLO 205, 16.1 µM (inactive); with LOX IMVI, > 10 µM (inactive); in the test with OVCAR-3, 16.9 µM (inactive); with SNB-19, > 100 µM (inactive); in the test with Malme-3M it was 18.5 µM (inactive). The GI50 in the test on HCC 2998 is 62.2 µM (inactive); in the test with UACC-62, 17.5 µM (inactive); in the test with MDA-MB-435, 18.8 µM (inactive); in the test on M14, 18.7 µM (inactive); in the test on SF-295 it was 50.1 µM (inactive); in the test on HOP-62, 18.2 µM (inactive).

For the compound `Cc1cn(CCCCOC(=O)NC(CCCNC(N)=O)C(=O)O)c(=O)[nH]c1=O` (configuration not stated), the GI50 with HOP-92, in the test on MDA-N, in the test with OVCAR-4, in the test with OVCAR-8, with PC-3 and with COLO 205 was > 100 µM (inactive) throughout. Further, the GI50 in the test on LOX IMVI, with OVCAR-3, with SNB-19, with HCC 2998, in the test on UACC-62 and with MDA-MB-435 was > 100 µM (inactive) throughout. Also, the GI50 with SF-539, in the test on M14, with SF-295 and with HOP-62 was > 100 µM (inactive) each time.

Regarding `CCOc1cc(-c2nc3ccccn3c2/N=C/c2cc(Br)ccc2O)ccc1O`, the GI50 with NCI-H522 is 35.9 µM (inactive); in the test on HOP-92, 21.1 µM (inactive); with MDA-N, 46.1 µM (inactive); in the test on A498, 31.6 µM (inactive); with SK-MEL-5, 30.3 µM (inactive); with OVCAR-4, 14.1 µM (inactive). The GI50 in the test on OVCAR-8 is 21.2 µM (inactive); with PC-3, 18.8 µM (inactive); in the test with COLO 205, > 100 µM (inactive); with LOX IMVI, 23.2 µM (inactive); in the test on OVCAR-3 it was 9.29 µM (inactive); with SNB-19, 21.3 µM (inactive). The GI50 with Malme-3M is 41.1 µM (inactive); in the test with UACC-62 it was 23.9 µM (inactive); with MDA-MB-435, 66.8 µM (inactive); with SF-539, 29.6 µM (inactive); in the test on M14 it was 36.1 µM (inactive); with SF-295, 58.2 µM (inactive). Also, in the test with HOP-62, the GI50 is 20.3 µM (inactive).

On to `CSc1ncnc2c1ncn2C1OC(CO)C(O)OC1O` (configuration not stated), for which the GI50 with NCI-H522 is 3.34 µM (inactive); with HOP-92, 0.822 µM (active); in the test with MDA-N, 2.24 µM (inactive); in the test with A498, 1.11 µM (active); in the test on SK-MEL-5, 3.73 µM (inactive); in the test on OVCAR-4, 10.7 µM (inactive). In addition, the GI50 was 2.12 µM (inactive) with OVCAR-8; 2.26 µM (inactive) in the test on PC-3; 1.8 µM (inactive) in the test with COLO 205; 0.361 µM (active) in the test on LOX IMVI; 0.348 µM (active) in the test on OVCAR-3; 10.7 µM (inactive) with SNB-19. In addition, the GI50 in the test with Malme-3M is 14 µM (inactive); in the test with UACC-62 it was 2.96 µM (inactive); in the test on MDA-MB-435 it was 1.7 µM (inactive); with SF-539, 1.73 µM (inactive); in the test on M14, 1.14 µM (inactive); with SF-295 it was 13.6 µM (inactive). In addition, the GI50 in the test with HOP-62 was 3.7 µM (inactive).
